IC50, selectivity ratio and inhibition data for ten compounds are collected here from ChEMBL document CHEMBL3739421, “Discovery of oxybisbenzoylamides as a new class of antimalarial agents” (Medchemcomm, 2015).

SMILES strings stand for the structures. The source made the active and inactive calls. The rule behind the calls is not given here. A value given as a limit tells only on which side of the number the result lay.

A short description of data set [1]: Cytotoxicity against human fibroblasts assessed as growth inhibition after 72 hrs by MTT assay. The format is cell-based. To be noted: Fibroblast. In general terms: Tetrazolium dyes change colour on reduction, which living cells bring about.
Data set [2] deals with Plasmodium falciparum. The data set is described as follows: Antimalarial activity against Chloroquine-resistant Plasmodium falciparum W2 assessed as parasite growth inhibition after 72 hrs by lactate dehydrogenase assay. The format is functional, organism-based. To be noted: W2, 72 h.
Data set [3] has as its system Plasmodium falciparum. In words: Antimalarial activity against Chloroquine-sensitive Plasmodium falciparum D10 assessed as parasite growth inhibition after 72 hrs by lactate dehydrogenase assay. The format is functional, organism-based. To be noted: D10, 72 h.
The nature of data set [4]: Inhibition of beta-haematin formation after 18 hrs by spectrophotometric analysis relative to haematin. The data set is classed as physicochemical.
Data set [5] is described as follows: Therapeutic index, ratio of IC50 for HMEC1 cells to IC50 for Chloroquine-sensitive Plasmodium falciparum D10. As to conditions: human; read-out: Ratio IC50. The format is cell-based.
Data set [6] is described as follows: Therapeutic index, ratio of IC50 for HMEC1 cells to IC50 for Chloroquine-resistant Plasmodium falciparum W2. The format is cell-based. To be noted: human; read-out: Ratio IC50.
A short description of data set [7]: Therapeutic index, ratio of IC50 for human fibroblasts to IC50 for Chloroquine-sensitive Plasmodium falciparum D10. As to conditions: read-out: Ratio IC50.
A short description of data set [8]: Cytotoxicity against human HMEC1 cells assessed as growth inhibition after 72 hrs by MTT assay. The data set is classed as cell-based. To be noted: HMEC-1, 72 h.
The target of data set [9] is Plasmepsin II (Plasmodium falciparum) (UniProt P46925). The data set is described as follows: Inhibition of Plasmodium falciparum recombinant PLM2 expressed in Escherichia coli BL21(DE3) pLysS cells using Lys-GluPhe-Val-Phe-NPhe-Ala-Leu-Lys as substrate at 1 uM by spectrophotometry.
Data set [10] in a line: Therapeutic index, ratio of IC50 for human fibroblasts to IC50 for Chloroquine-resistant Plasmodium falciparum W2. As to conditions: read-out: Ratio IC50.

Chain of Plasmepsin II (Plasmodium falciparum) (P46925 125-453 limits assumed): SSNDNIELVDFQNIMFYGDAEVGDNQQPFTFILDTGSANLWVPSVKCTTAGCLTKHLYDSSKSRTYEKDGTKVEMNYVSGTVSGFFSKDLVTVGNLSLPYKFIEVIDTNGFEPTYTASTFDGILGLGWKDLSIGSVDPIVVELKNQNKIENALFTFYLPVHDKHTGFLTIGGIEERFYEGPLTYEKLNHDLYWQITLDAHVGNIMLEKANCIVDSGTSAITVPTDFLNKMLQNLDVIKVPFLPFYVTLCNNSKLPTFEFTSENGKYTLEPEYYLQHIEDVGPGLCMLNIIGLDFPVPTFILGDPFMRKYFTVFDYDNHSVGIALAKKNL

With `CCCCNC(=O)[C@H](CC(C)C)NC(=O)c1ccc(Oc2ccc(C(=O)N[C@@H](CC(C)C)C(=O)NCCN(CC)CC)cc2)cc1`, the IC50 in data set [1] is 23 µM; in data set [2] it was 314 nM; in data set [3], 357 nM.

Consider `CCN(CC)CCCC(C)Nc1ccnc2cc(Cl)ccc12` (stereo not drawn) [CHLOROQUINE], for which the IC50 in data set [4] came out at 1.36 equiv.

`COc1cc(NC(C)CCCN)c2ncccc2c1` (stereo not drawn) [PRIMAQUINE] came in with an IC50 in data set [4] of over 10 equiv.

With `CCCCNC(=O)[C@H](CC(C)C)NC(=O)[C@@H](NC(=O)c1ccc(Oc2ccc(C(=O)N[C@H](C(=O)N[C@@H](CC(C)C)C(=O)NCCCC)[C@@H](C)CC)cc2)cc1)[C@@H](C)CC`, the IC50 in data set [2] came out at 1620 nM; in [3], 1980 nM.

For `CCCCNC(=O)[C@H](CC(C)C)NC(=O)[C@@H](NC(=O)c1ccc(Oc2ccc(C(=O)N[C@@H](C)C(=O)NCCCNc3ccnc4cc(Cl)ccc34)cc2)cc1)[C@@H](C)CC`, the selectivity ratio in [5], in data set [6], in data set [7] and in data set [10] was 450 each time. In addition, the IC50 in [1] stood at 18 µM; in [4] it was 0.79 equiv; in [8], 17.6 µM; in [2] it was 39 nM; in data set [3], 43 nM. In data set [9], the inhibition entry was “inactive”.

With `CCCCNC(=O)[C@H](CC(C)C)NC(=O)[C@@H](NC(=O)c1ccc(Oc2ccc(C(=O)N[C@@H](CC(C)C)C(=O)NCCCN(CC)CC)cc2)cc1)[C@@H](C)CC`, the values for the IC50 in data set [1], in data set [2] and in [3] were 16.3 µM, 103 nM and 121 nM, respectively. The selectivity ratio in data set [7] and in data set [10] was over 100 in each case.

With `CCN(CC)CCNC(=O)[C@H](CC(C)C)NC(=O)c1ccc(Oc2ccccc2)cc1`, the IC50 in [2] and in data set [3] was over 5 µg/mL each time.

Turning to `CCCCNC(=O)[C@H](CC(C)C)NC(=O)[C@@H](NC(=O)c1ccc(Oc2ccc(C(=O)N[C@@H](CC(C)C)C(=O)N[C@@H](C)C(=O)NCCN(CC)CC)cc2)cc1)[C@@H](C)CC`, the IC50 in data set [2] came to 143 nM; in data set [3], 345 nM.

`CCCCNC(=O)[C@H](CC(C)C)NC(=O)[C@@H](NC(=O)c1ccc(Oc2ccc(C(=O)N[C@@H](CC(C)C)C(=O)N[C@@H](C)C(=O)NCCCC(C)Nc3cc(OC)cc4cccnc34)cc2)cc1)[C@@H](C)CC` (stereo partly drawn): the IC50 in data set [4] was over 8 equiv; in data set [2], 104 nM; in data set [3], 37 nM. Moreover, in data set [9], the inhibition result was “inactive”.

As to `CCCCNC(=O)[C@H](CC(C)C)NC(=O)[C@@H](NC(=O)c1ccc(Oc2ccc(C(=O)N[C@@H](CC(C)C)C(=O)N[C@@H](C)C(=O)NCCCNc3ccnc4ccccc34)cc2)cc1)[C@@H](C)CC`, the figures for the IC50 in data set [2] and in data set [3] were 54 nM and 63 nM, respectively. Besides, the inhibition result in data set [9] is “inactive”.
